From paper PMC3961306, “Comparison of the Cancer Gene Targeting and Biochemical Selectivities of All Targeted Kinase Inhibitors Approved for Clinical Use” (PLoS ONE, 2014)
Read-outs that look alike come from different tables or passages of the source.

Legend:
[1] = target: panel of more than 300 wild-type and mutant kinases (313 kinase panel) (Homo sapiens, UniProt Q9UM73, R1275Q); test: Kinase profiling in a biochemical assay panel (mobility shift assays and ELISA), %-inhibition at 1 μM; selectivity entropy; settings: kinase ALK(R1275Q); 1 μM compound
[2] = target: panel of more than 300 wild-type and mutant kinases (313 kinase panel) (Homo sapiens, UniProt P09619); test: as above; settings: kinase PDGFRβ; 1 μM
[3] = target: panel of more than 300 wild-type and mutant kinases (313 kinase panel) (Homo sapiens, UniProt P22612); test: as above; settings: kinase PKACγ; 1 μM
[4] = target: panel of more than 300 wild-type and mutant kinases (313 kinase panel) (Homo sapiens, UniProt P15056); test: as above; settings: kinase BRAF; 1 μM compound
[5] = target: panel of more than 300 wild-type and mutant kinases (313 kinase panel) (Homo sapiens, UniProt P15056, V600E); test: as above; settings: kinase BRAF(V600E); 1 μM compound
[6] = target: panel of more than 300 wild-type and mutant kinases (313 kinase panel) (Homo sapiens, UniProt P11362, V561M); test: as above; settings: kinase FGFR1(V561M); compound at 1 μM
[7] = target: panel of more than 300 wild-type and mutant kinases (313 kinase panel) (Homo sapiens, UniProt P35968); test: as above; settings: kinase KDR; compound at 1 μM
[8] = target: panel of more than 300 wild-type and mutant kinases (313 kinase panel) (Homo sapiens, UniProt P07947, T348I); test: as above; settings: kinase YES(T348I); compound at 1 μM
[9] = target: panel of more than 300 wild-type and mutant kinases (313 kinase panel) (Homo sapiens, UniProt P00533, L858R/T790M); test: as above; settings: kinase EGFR(T790M/L858R); compound at 1 μM
[10] = tested on: forty-four human cancer cell lines; test: Cell proliferation assay (ATPlite, 72 hours) in the 44 cell line Oncolines panel; format: cell-based; settings: Homo sapiens
[11] = A 172, read-out: cell panel IC50, A-172
[12] = A204, cell line A-204, read-out: cell panel IC50, A-204
[13] = A498, read-out: cell panel IC50, A-498
[14] = A549, read-out: cell panel IC50, A-549
[15] = A-375, cell line A375, read-out: cell panel IC50, A375
[16] = A-427, read-out: cell panel IC50, A-427
[17] = AU565, read-out: cell panel IC50, AU-565
[18] = BT-549, read-out: cell panel IC50, BT-549
[19] = HCT-116, read-out: cell panel IC50, HCT-116
[20] = K562, read-out: cell panel IC50, K-562
[21] = LS174T, read-out: cell panel IC50, LS 174T
[22] = SHP77, cell line SHP-77, read-out: cell panel IC50, SHP-77
[23] = SW-620, cell line SW620, read-out: cell panel IC50, SW620
[24] = U2OS, cell line U-2 OS, read-out: cell panel IC50, U-2 OS
[25] = cell line J82, read-out: cell panel IC50, J82
[26] = cell line PA-1, read-out: cell panel IC50, PA-1
[27] = cell line SJCRH30, read-out: cell panel IC50, SJCRH30
[28] = cell line SR, read-out: cell panel IC50, SR
[29] = U-87 MG cell line, ATPlite, 72 hours, read-out: IC50 in cell proliferation assay (table S5 cellpanel data)
[30] = cell line 769-P, read-out: cell panel IC50, 769-P
[31] = cell line 786-0, read-out: cell panel IC50, 786-0
[32] = cell line ACHN, read-out: cell panel IC50, ACHN
[33] = cell line AN3 CA, read-out: cell panel IC50, AN3 CA
[34] = cell line BT-20, read-out: cell panel IC50, BT-20
[35] = cell line BxPC-3, read-out: cell panel IC50, BxPC-3
[36] = cell line C-33 A, read-out: cell panel IC50, C-33 A
[37] = cell line CAL 27, read-out: cell panel IC50, CAL 27
[38] = cell line CCRF-CEM, read-out: cell panel IC50, CCRF-CEM
[39] = cell line DLD-1, read-out: cell panel IC50, DLD-1
[40] = cell line FaDu, read-out: cell panel IC50, FaDu
[41] = cell line HCT-15, read-out: cell panel IC50, HCT-15
[42] = cell line Hs 578T, read-out: cell panel IC50, Hs 578T
[43] = cell line Jurkat E6.1, read-out: cell panel IC50, Jurkat E6.1
[44] = cell line LoVo, read-out: cell panel IC50, LoVo
[45] = cell line MG-63, read-out: cell panel IC50, MG-63
[46] = cell line MOLT-4, read-out: cell panel IC50, MOLT-4
[47] = cell line MeWo, read-out: cell panel IC50, MeWo
[48] = cell line NCI-H82, read-out: cell panel IC50, NCI-H82
[49] = cell line NCI-H460, read-out: cell panel IC50, NCI-H460
[50] = cell line OVCAR-3, read-out: cell panel IC50, OVCAR-3
[51] = cell line RPMI-7951, read-out: cell panel IC50, RPMI-7951
[52] = cell line SK-N-AS, read-out: cell panel IC50, SK-N-AS
[53] = cell line SW48, read-out: cell panel IC50, SW48
[54] = cell line SW480, read-out: cell panel IC50, SW480

With CC(=O)Nc1cccc(-n2c(=O)n(C3CC3)c(=O)c3c(Nc4ccc(I)cc4F)n(C)c(=O)c(C)c32)c1 [trametinib] the “%-inhibition, ALK(R1275Q)” value [1] was -1.83%, the “%-inhibition of PDGFRβ” value [2] was 3.44% and the “%-inhibition of PKACγ” value [3] was 2%. The “%-inhibition, BRAF” value [4] was 78%, the “%-inhibition, BRAF(V600E)” value [5] was 37% and the “%-inhibition of FGFR1(V561M)” value [6] was -3.3%. The “%-inhibition of KDR” value [7] was -0.549%, the “%-inhibition of YES(T348I)” value [8] was -2.82% and the “%-inhibition of EGFR(T790M/L858R)” value [9] was -6.51%. The IC50 [10, 11] was 110 nM, the IC50 [10, 12] was 631 nM and the IC50 [10, 13] was 22300 nM. For the same compound, the IC50 [10, 14] was 57 nM, the IC50 [10, 15] was 13 nM and the IC50 [10, 16] was 17 nM. The IC50 [10, 17] was 19400 nM, the IC50 [10, 18] was 17700 nM and the IC50 [10, 19] was 35 nM. The IC50 [10, 20] was 37 nM, the IC50 [10, 21] was 37 nM and the IC50 [10, 22] was greater than 31600 nM. For the same compound, the IC50 [10, 23] was 1.35 nM, the IC50 [10, 24] was 311 nM and the IC50 [10, 25] was greater than 31600 nM. The IC50 [10, 26] was 436 nM, the IC50 [10, 27] was 783 nM and the IC50 [10, 28] was 950 nM. For the same compound, the IC50 [10, 29] was 229 nM, the IC50 [10, 30] was 85 nM and the IC50 [10, 31] was 25800 nM. It also gave an IC50 [10, 32] of 496 nM, an IC50 [10, 33] of 13600 nM and an IC50 [10, 34] greater than 31600 nM. It also gave an IC50 [10, 35] of 29 nM, an IC50 [10, 36] of 8 nM and an IC50 [10, 37] of 58 nM. The IC50 [10, 38] was 28000 nM, the IC50 [10, 39] was 493 nM and the IC50 [10, 40] was 14 nM. The IC50 [10, 41] was 2040 nM, the IC50 [10, 42] was 371 nM and the IC50 [10, 43] was greater than 31600 nM. It also gave an IC50 [10, 44] of 8 nM, an IC50 [10, 45] of 119 nM and an IC50 [10, 46] of 19300 nM. The IC50 [10, 47] was 33 nM, the IC50 [10, 48] was 24700 nM and the IC50 [10, 49] was 14 nM. It also gave an IC50 [10, 50] greater than 31600 nM, an IC50 [10, 51] of 10 nM and an IC50 [10, 52] of 9.52 nM. For the same compound, the IC50 [10, 53] was 1.2 nM and the IC50 [10, 54] was 574 nM.

For CO[C@H]1C[C@@H]2CC[C@@H](C)[C@@](O)(O2)C(=O)C(=O)N2CCCC[C@H]2C(=O)O[C@H]([C@H](C)C[C@@H]2CC[C@@H](OC(=O)C(C)(CO)CO)[C@H](OC)C2)CC(=O)[C@H](C)/C=C(\C)[C@@H](O)[C@@H](OC)C(=O)[C@H](C)C[C@H](C)/C=C/C=C/C=C/1C [temsirolimus], the “%-inhibition, ALK(R1275Q)” value [1] was -1.39%, the “%-inhibition of PDGFRβ” value [2] was -2.27% and the “%-inhibition of PKACγ” value [3] was -6%. For the same compound, the “%-inhibition, BRAF” value [4] was -3.36%, the “%-inhibition, BRAF(V600E)” value [5] was -0.864% and the “%-inhibition of FGFR1(V561M)” value [6] was -9%. The “%-inhibition of KDR” value [7] was -7%, the “%-inhibition of YES(T348I)” value [8] was -0.177% and the “%-inhibition of EGFR(T790M/L858R)” value [9] was -2.75%. It also gave an IC50 [10, 11] of 10 nM, an IC50 [10, 12] of 2470 nM and an IC50 [10, 13] of 1520 nM. It also gave an IC50 [10, 14] of 746 nM, an IC50 [10, 15] greater than 3160 nM and an IC50 [10, 16] of 96 nM. For the same compound, the IC50 [10, 17] was 63 nM, the IC50 [10, 18] was 17 nM and the IC50 [10, 19] was 252 nM. The IC50 [10, 20] was greater than 3160 nM, the IC50 [10, 21] was 88 nM and the IC50 [10, 22] was greater than 3160 nM. It also gave an IC50 [10, 23] greater than 3160 nM, an IC50 [10, 24] of 41 nM and an IC50 [10, 25] of 26 nM. It also gave an IC50 [10, 26] of 1320 nM, an IC50 [10, 27] greater than 3160 nM and an IC50 [10, 28] of 8 nM. The IC50 [10, 29] was 454 nM, the IC50 [10, 30] was 9 nM and the IC50 [10, 31] was 428 nM. For the same compound, the IC50 [10, 32] was greater than 3160 nM, the IC50 [10, 33] was 792 nM and the IC50 [10, 34] was 33 nM. It also gave an IC50 [10, 35] greater than 3160 nM, an IC50 [10, 36] of 34 nM and an IC50 [10, 37] greater than 3160 nM. For the same compound, the IC50 [10, 38] was 15 nM, the IC50 [10, 39] was 127 nM and the IC50 [10, 40] was greater than 3160 nM. The IC50 [10, 41] was 2470 nM, the IC50 [10, 42] was 100 nM and the IC50 [10, 43] was 122 nM. It also gave an IC50 [10, 44] greater than 3160 nM, an IC50 [10, 45] of 2220 nM and an IC50 [10, 46] of 21 nM. The IC50 [10, 47] was 19 nM, the IC50 [10, 48] was greater than 3160 nM and the IC50 [10, 49] was 47 nM. For the same compound, the IC50 [10, 50] was greater than 3160 nM, the IC50 [10, 51] was 1.2 nM and the IC50 [10, 52] was 238 nM. For the same compound, the IC50 [10, 53] was greater than 3160 nM and the IC50 [10, 54] was 18 nM.
